From patent publication US9718809B2, “Bisarylsulfonamides useful in the treatment of inflammation and cancer” (Kancera AB, priority 2011, dated 2017)

How the values were obtained:
F-2,6-P2 in MCF-7 cells = test: Quantification of F-2,6-P2 (Van Schaftingen coupled enzyme assay) in MCF-7 cells; assay type: cell-based; conditions: Homo sapiens, MCF7, read-out: IC50 based on quantification of F-2,6-P2
Source text: A method for quantification of F-2,6-P2 has been described by Van Schaftingen et al. (1982) Eur. J. Biochem. 129, 191-5. This sensitive assay is based on the potent activation of pyrophosphate dependent phosphofructokinase-1 (PPi-PFK) from potato tubers by F-2,6-P2. The use of a series of coupled enzymes leads to a consumption of NADH (nicotinamide adenine dinucleotide) that can be followed spectrophotometrically (an updated protocol is available in Van Schaftingen, (1984) Methods of Enzymatic Analysis (Bergmeyer, H. U., ed.), 3rd edn., vol. 6, pp. 335-341, Verlag Chemie, Weinheim). A protocol for measurements in 96-well microtiter plate format is also available (Bruni et al., (1989) Anal. Biochem. 178, 324-6).
The levels of F-2,6-P2 have been determined using the van Shaftingen assay as described in the protocol below, in six different cancer cell lines endogenously expressing varying levels of the different isoforms of PFK-2/BPase-2 (MCF-7, PANC-1, NUGC-3, SW480, SW620 and MIA PaCa-2). All reagents were purchased from commercial sources or prepared in-house.
Cell line A (MCF-7, human breast adenocarcinoma cell line): MCF-7 cells (ATCC-HTB-22), lot. no. 58469417. […]

F-2,6-P2 in PANC-1 cells = test: Quantification of F-2,6-P2 (Van Schaftingen coupled enzyme assay) in PANC-1 cells; assay type: cell-based, human; conditions: Homo sapiens; PANC-1 cells; read-out: IC50 based on quantification of F-2,6-P2
Method in brief: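 PANC-1 cells (~25 000/well) starved 18 h in glucose-free 0.25% FBS medium, treated 1 h with compound (50 and 10 μM, or dose response from 50 μM; 0.5% DMSO), then glucose added for 2 h at 37 °C. Cells lysed in NaOH; F-2,6-P2 quantified by PPi-PFK coupled NADH-consumption spectrophotometry.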

SW620 cells = test: Inhibition of cancer cell proliferation, total cellular protein (Sulphorhodamine B), SW620; conditions: Homo sapiens, SW-620, 72 h, read-out: IC50 based on quantitation of total cellular protein after treatment
Description: To assess the antiproliferative response elicited by the compounds of the present invention in different tumour cell lines, total cellular protein in samples was quantified using the Sulphorhodamine B kit, TOX6, (Sigma-Aldrich). The protocol is based on quantitation of total cellular protein after indicated treatments and incubation times using the Sulphorhodamine B kit, TOX6, (Sigma-Aldrich).
Briefly, after protein precipitation using TCA according to the manufacturer's instructions, the sulphorhodamine dye (80 μL/well) was added to the air-dried wells. After 20 min incubation at room temperature, the dye was discarded and the samples were gently rinsed with 1% HOAc until clear. After air drying, bound dye was solubilised in 200 μL 10 mM Tris base, and the absorbance of dye was measured at 565 nm. To quantify growth, samples were collected also at t=0 h, and the resulting absorbance was set to 100%. […]
After protein precipitation using TCA according to the manufacturer's instructions, the sulforhodamine B dye (50 μL/well) was added to the air-dried wells. […] After air drying, bound dye was solubilised in 100 μL 10 mM Tris base, and the absorbance of dye was measured at 530 nm and a background absorbance (subtract from the measurement at 530 nm) at 690 nm. To quantify growth, samples were collected also at t=0 h.

| IC50 (F-2,6-P2 in MCF-7 cells) [nM] | IC50 (F-2,6-P2 in PANC-1 cells) [nM] | IC50 (SW620 cells) [nM] | Structure (SMILES) |
| --- | --- | --- | --- |
| 900 | – | – | COCCOC(=O)c1ccc(NS(=O)(=O)c2cc(-c3ccc4c(c3)CCO4)c(Cl)s2)cc1O [Example 76, 2-Methoxyethyl 4-({[5-chloro-4-(2,3-dihydro-1-benzofuran-5-yl)-2-thienyl]sulfonyl}amino)-2-hydroxybenzoate] |
| – | 1500 | 11800 | COC(=O)c1ccc(NS(=O)(=O)c2cc(Cl)c(Cl)s2)cc1OC(C)=O [Example 132, Methyl 2-(acetyloxy)-4-{[(4,5-dichlorothiophen-2-yl)sulfonyl]amino}benzoate] |
